We go through two compounds from publication PMC10744612, “Genome Mining Reveals a Surprising Number of Sugar Reductases in Aspergillus niger” (Journal of Fungi, 2023).

Read-outs that look alike come from different tables or passages of the source.

Assay in all cases: NADPH oxidation at […] nm, Michaelis-Menten fit
Holding throughout (type): biochemical, Aspergillus niger
Conditions in all cases: 0.2 mM NADPH, HEPES pH 7.0

For one test, the system named is T1, SrdE.
T1 construct: cDNA in pET-28a(+), His-tag purified from E. coli

A further test deals with T2, XyrB.
T2 construct: recombinant plasmid from a previous study, His-tag purified from E. coli

For the next test, the system named is T3, SrdB.
T3 construct: cDNA in pET-28a(+), His-tag purified from E. coli

Take `OC1OC[C@@H](O)[C@H](O)[C@H]1O` (stereo partly drawn) [D-xylose]: the Km came out at 1.1 mM in the test on SrdE (read-out: D-xylose / Km), 3 mM in the test with XyrB (read-out: D-xylose / Km) and 2.8 mM in the test with SrdB (read-out: D-xylose / Km).

On to `OC1OC[C@H](O)[C@H](O)[C@H]1O` (stereo partly drawn) [L-arabinose], for which the Km with SrdE (read-out: L-arabinose / Km) stood at 4.3 mM; in the test on XyrB (read-out: L-arabinose / Km) it was 12.3 mM; in the test on SrdB (read-out: L-arabinose / Km) it was 4.5 mM.
